# Earlier results as cited in patent US20100104646A1, “NANOPARTICLE COMPOSITION FOR PREVENTION OF HAIR LOSS AND PROMOTION OF HAIR GROWTH” (priority 2006, published 2010).
# Test system: hair loss
# Details: clinical studies
smiles,measurement,setting,value
CC(C)(C)NC(=O)[C@H]1CC[C@H]2[C@@H]3CC[C@H]4NC(=O)C=C[C@]4(C)[C@H]3CC[C@]12C [Propecia],participants taking the drug in whom hair loss was prevented,,68%
same,participants who enjoyed hair regrowth,participants taking the drug,66%
